Experimental data reported in US7956196B2, “1,3-dihydro-benzimidazol-2-ylidene amines as inhibitors of respiratory syncytial virus replication” (Tibotec Pharmaceuticals Ltd., priority 2005, dated 2011).
Structures can show the parent of a compound that is named as a salt. Where two headings read alike, the source gives them in different places.

Legend:
[1] = test system: Respiratory Syncytial Virus; assay: In vitro screening for activity against RSV, automated tetrazolium-based (MTT) colorimetric assay in HeLa cells; format: cell-based; conditions: human respiratory syncytial virus, 168 h, read-out: pIC50 (converted)
Source text: In vitro screening of compounds of formula (I) for activity against RSV. The percent protection against cytopathology caused by viruses (antiviral activity or EC50) achieved by tested compounds and their cytotoxicity (CC50) are both calculated from dose-response curves. The selectivity of the antiviral effect is represented by the selectivity index (SI), calculated by dividing the CC50 (cytotoxic dose for 50% of the cells) by the EC50 (antiviral activity for 50% of the cells). The tables in the above experimental part list the category to which each of the prepared compounds belong: Compounds belonging to activity category “A” have a pEC50 (-log of EC50 when expressed in molar units) equal to or more than 7. Compounds belonging to activity category “B” have a pEC50 value between 6 and 7.
Automated tetrazolium-based colorimetric assays were used for determination of EC50 and CC50 of test compounds. Flat-bottom, 96-well plastic microtiter trays were filled with 180 μl of Eagle's Basal Medium, supplemented with 5% FCS (0% for FLU) and 20 mM Hepes buffer. Subsequently, stock solutions (7.8×final test concentration) of compounds were added in 45 μl volumes to a series of triplicate wells so as to allow simultaneous evaluation of their effects on virus- and mock-infected cells. Five five-fold dilutions were made directly in the microtiter trays using a robot system. Untreated virus controls, and HeLa cell controls were included in each test. Approximately 100 TCID50 of Respiratory Syncytial Virus was added to two of the three rows in a volume of 50 μl. The same volume of medium was added to the third row to measure the cytotoxicity of the compounds at the same concentrations as those used to measure the antiviral activity. After two hours of incubation, a suspension (4×10^5 cells/ml) of HeLa cells was added to all wells in a volume of 50 μl. The cultures were incubated at 37° C. in a 5% CO2 atmosphere. Seven days after infection the cytotoxicity and the antiviral activity was examined spectrophotometrically. To each well of the microtiter tray, 25 μl of a solution of MTT (3-(4,5-dimethylthiazol-2-yl)-2,5-diphenyltetrazolium bromide) was added. The trays were further incubated at 37° C. for 2 hours, after which the medium was removed from each cup. Solubilization of the formazan crystals was achieved by adding 100 μl 2-propanol. Complete dissolution of the formazan crystals were obtained after the trays have been placed on a plate shaker for 10 min. Finally, the absorbances were read in an eight-channel computer-controlled photometer (Multiskan MCC, Flow Laboratories) at two wavelengths (540 and 690 nm). The absorbance measured at 690 nm was automatically subtracted from the absorbance at 540 nm, so as to eliminate the effects of non-specific absorption.
The percent protection against cytopathology caused by viruses (antiviral activity or EC50) achieved by tested compounds and their cytotoxicity (CC50) were both calculated from dose-response curves. The selectivity of the antiviral effect is represented by the selectivity index (SI), calculated by dividing the CC50 (cytotoxic dose for 50% of the cells) by the EC50 (antiviral activity for 50% of the cells).

[2] = protection against RSV cytopathology in HeLa cells, MTT readout seven days after infection

| SMILES | melting point | IC50 [1, 2] | IC50 ([1]; HeLa) |
| --- | --- | --- | --- |
| COC(=O)c1ccc(Cn2c(=NCCc3ccc(Br)cc3)n(Cc3cccc4cccnc34)c3ccccc32)cc1 (as salt: HCl) [Compound 35] | 128 °C |  |  |
| N#Cc1ccc(Cn2c(=NCCc3ccc(OCCO)cc3)n(Cc3cccc4cccnc34)c3ccccc32)cc1 [Compound 1] |  | 6.31 nM |  |
| N#Cc1ccc(CN=c2n(Cc3ccc(C#N)cc3)c3ccccc3n2Cc2cccc3cccnc23)cc1 [Compound 2] |  | 10 nM |  |
| N#Cc1ccc(Cn2c(=NCCc3ccc(O)cc3)n(Cc3cccc4cccnc34)c3ccccc32)cc1 [Compound 4] | 160 °C | 12.6 nM |  |
| COC(=O)c1ccc(CN=c2n(Cc3ccc(C#N)cc3)c3ccccc3n2Cc2cccc3cccnc23)cc1 [Compound 5] |  | 15.8 nM |  |
| N#Cc1ccc(Cn2c(=NCCc3ccc(Br)cc3)n(Cc3cccc4cccnc34)c3ccccc32)cc1 [Compound 6] |  | 31.6 nM |  |
| N#Cc1ccc(Cn2c(=NCCc3cccc(F)c3)n(Cc3cccc4cccnc34)c3ccccc32)cc1 [Compound 8] | 102 °C | 50.1 nM |  |
| COc1ccc(CCCN=c2n(Cc3ccc(C#N)cc3)c3ccccc3n2Cc2cccc3cccnc23)cc1 [Compound 9] | 80 °C | 50.1 nM |  |
| N#Cc1ccc(Cn2c(=NCc3cccc(C#N)c3)n(Cc3cccc4cccnc34)c3ccccc32)cc1 [Compound 10] |  | 63.1 nM |  |
| N#Cc1ccc(Cn2c(=NCCc3ccc(F)cc3)n(Cc3cccc4cccnc34)c3ccccc32)cc1 [Compound 11] |  | 79.4 nM |  |
| N#Cc1ccc(Cn2c(=NCCCN3CCOCC3)n(Cc3cccc4cccnc34)c3ccccc32)cc1 [Compound 13] | 80 °C | 126 nM |  |
| COc1ccccc1CCN=c1n(Cc2ccc(C#N)cc2)c2ccccc2n1Cc1cccc2cccnc12 [Compound 14] |  | 158 nM |  |
| N#Cc1ccc(Cn2c(=NCCCN3CCCC3=O)n(Cc3cccc4cccnc34)c3ccccc32)cc1 [Compound 15] |  | 200 nM |  |
| Cc1cc(C)cc(CN=c2n(Cc3ccc(C#N)cc3)c3ccccc3n2Cc2cccc3cccnc23)c1 [Compound 16] | 142 °C |  | 251 nM |
| N#Cc1ccc(Cn2c(=NCCC(c3ccccc3)c3ccccc3)n(Cc3cccc4cccnc34)c3ccccc32)cc1 [Compound 18] | 184 °C | 316 nM |  |
| N#Cc1ccc(Cn2c(=NC(=O)c3cccc(Cl)c3)n(Cc3cccc4cccnc34)c3ccccc32)cc1 [Compound 19] | 160 °C | 316 nM |  |
| N#Cc1ccc(Cn2c(=NCCc3ccccc3)n(Cc3cccc4cccnc34)c3ccccc32)cc1 [Compound 25] |  | 2000 nM |  |
| COC(=O)c1ccc(Cn2c(=NCCc3ccc(Br)cc3)n(Cc3cccc4cccnc34)c3ccccc32)cc1 [Compound 35] |  | 7.94 nM |  |
| COC(=O)c1ccc(Cn2c(=NCCCN3CCOCC3)n(Cc3cccc4cccnc34)c3ccccc32)cc1 [Compound 37] |  | 126 nM |  |
| COc1ccc(CCN=c2n(Cc3ccc(OC)cc3)c3ccccc3n2Cc2cccc3cccnc23)cc1 [Compound 41] |  | 63.1 nM |  |
| COc1ccc(CCN=c2n(Cc3ccc(C)cc3)c3ccccc3n2Cc2cccc3cccnc23)cc1 [Compound 42] |  |  | 79.4 nM |
| COc1ccc(CCN=c2n(Cc3ccc(Br)cc3)c3ccccc3n2Cc2cccc3cccnc23)cc1 [Compound 45] |  | 100 nM |  |
| COc1ccc(CCN=c2n(Cc3ccc(F)cc3)c3ccccc3n2Cc2cccc3cccnc23)cc1 [Compound 47] |  | 158 nM |  |
| CCOc1ccc(CCn2c(=NCCc3ccc(OC)cc3)n(Cc3cccc4cccnc34)c3ccccc32)cc1 [Compound 48] |  | 200 nM |  |
| COc1ccc(CCN=c2n(Cc3cccc(Cl)c3)c3ccccc3n2Cc2cccc3cccnc23)cc1 [Compound 49] |  | 251 nM |  |
| CCOc1ccc(CCn2c(=NCCc3ccc(Br)cc3)n(Cc3cccc4cccnc34)c3ccccc32)cc1 [Compound 51] |  | 501 nM |  |
| N#Cc1ccc(C(=O)Cn2c(=NCCc3ccc(Br)cc3)n(Cc3cccc4cccnc34)c3ccccc32)cc1 [Compound 53] |  | 2510 nM |  |
| N#Cc1ccc(Cn2c(=NCCCN3CCOCC3)n(Cc3ccc4ccccc4n3)c3ccccc32)cc1 [Compound 56] |  | 200 nM |  |
